From paper PMC7317717, “Electrophysiological Characterization of Transport Across Outer‐Membrane Channels from Gram‐Negative Bacteria in Presence of Lipopolysaccharides” (Angewandte Chemie (International Ed. in English), 2020) come the findings set out here.

Holding throughout (assay): single-channel electrophysiology, planar lipid bilayer, ion current blockage events
Common to all, as to assay type: binding

In assay [1] the target is T1, OmpF (OmpF-WT) (Escherichia coli, UniProt P02931).
T1 construct: purified wild-type OmpF, mature porin, homotrimer, reconstituted in planar lipid bilayer; OMV form overexpressed in E. coli BL21(DE3)omp8
T1 sequence (P02931 23-362): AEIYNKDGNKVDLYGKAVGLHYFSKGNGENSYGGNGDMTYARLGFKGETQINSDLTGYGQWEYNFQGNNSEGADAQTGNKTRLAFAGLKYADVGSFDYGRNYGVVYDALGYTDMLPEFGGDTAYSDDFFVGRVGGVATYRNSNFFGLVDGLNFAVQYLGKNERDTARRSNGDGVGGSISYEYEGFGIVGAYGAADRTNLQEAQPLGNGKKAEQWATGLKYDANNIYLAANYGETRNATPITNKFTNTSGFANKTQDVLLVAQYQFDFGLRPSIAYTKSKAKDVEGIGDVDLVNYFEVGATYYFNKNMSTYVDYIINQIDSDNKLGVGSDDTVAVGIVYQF
The conditions noted are these: purified OmpF without LPS; 250 uM compound; 200 mM KCl, 20 mM MES, pH 6.0; negative voltage (-50 mV stated for the OMV values).

Assay [2] deals with T1, OmpF (OmpF-WT). Particulars: purified OmpF without LPS; 250 uM compound; 200 mM KCl, 20 mM MES, pH 6.0; negative voltage (-50 mV stated for the OMV values). An excerpt: single-channel electrophysiology, planar lipid bilayer, ion current blockage events on OmpF (OmpF-WT) | Higher event rates are found using purified OmpF.
This is another data set of the same source.

Assay [3] has as its target T1, OmpF (OmpF-WT). Particulars: purified OmpF; 10 uM compound; 1 M KCl, 20 mM MES, pH 6.

Counter-ions that a name gives are not always drawn.

The compound `CCN1CCN(c2cc3c(cc2F)c(=O)c(C(=O)O)cn3C2CC2)CC1` [Enrofloxacin] registered a k off on OmpF (OmpF-WT) [1] of 500 s⁻¹. Besides, at OmpF (OmpF-WT) [2], the k on was 72,000 s^-1 M^-1.
For the compound `NC[C@H]1O[C@H](O[C@H]2[C@H](O)[C@@H](O[C@H]3O[C@H](CO)[C@@H](O)[C@H](N)[C@H]3O)[C@H](N)C[C@@H]2N)[C@H](O)[C@@H](O)[C@@H]1O` [Kanamycin sulfate], the event rate result at OmpF (OmpF-WT) [3] is “Kanamycin sulfate permeation for both batches of preparation”.
